Structures can show the parent of a compound that is named as a salt.

Results on 25 compounds are retold here after US9902710B2, “Substituted 6, 7-dialkoxy-3-isoquinoline derivatives as inhibitors of phosphodiesterase 10 (PDE 10A)” (Allergan, Inc., priority 2013, dated 2018).

The experiment addresses PDE10A. Briefly: Diaxonhit phosphodiesterase assay (TR-FRET, LANCE cAMP kit), PDE10A. Format: biochemical. The method, then:
Diaxonhit Phosphodiesterase Assay (PDE10A and PDE4D3)
The PDE assay is based on the homogenous time-resolved fluorescence resonance energy transfer (TR-FRET) technology (LANCE® from Perkin Elmer). […] When there is PDE activity, resulting in the degradation of the cyclic nucleotide, the complex is not formed and a decrease in signal is observed.
The phosphodiesterase assay was developed using the LANCE® cAMP kit (PerkinElmer). The assay buffer contained HBSS with 5 mM HEPES, 0.1% BSA, and 1.5 mM MgCl2, pH 7.4. […] Chemical compounds were dissolved in DMSO (final concentration 2% (v/v)).
In a 384-well plate, 2 μL of the inhibitor and 3 μL PDE were added to the well, followed by the addition of 5 μl substrate biotinylated cAMP (1:5). After 60 min incubation at room temperature, 10 μL of assay detection mixture was added to the assay plate. After 1 h at room temperature, the signal was measured on EnVision™ (PerkinElmer).
Broadly, the IC50 is the midpoint of a concentration-inhibition curve. With `COc1cc2cncc(Cc3ccc4sccc4c3)c2cc1OC` [Compound 3, 4-(benzo[b]thiophen-5-ylmethyl)-6,7-dimethoxyisoquinoline hydrochloride], the concentration for half-maximal inhibition (IC50) turned out to be 100 nM. In other words, the sub-micromolar range.
Under `COc1cc2cncc(Cc3ccc4cccc(OC)c4n3)c2cc1OC` [Compound 21, 2-((6,7-dimethoxyisoquinolin-4-yl)methyl)-8-methoxyquinoline dihydrochloride] stands 46 nM.
Compound `COc1cc2c(Cc3cnc4ccccc4c3)cnc(C)c2cc1OC` [Compound 26, 3-((6,7-dimethoxy-1-methylisoquinolin-4-yl)methyl)quinoline dihydrochloride] showed a 50% inhibitory concentration (IC50) of 49 nM.
Regarding `COc1cc2cncc(Cc3ccc4cccc(OCCO)c4n3)c2cc1OC` [Compound 42, 2-((2-((6,7-dimethoxyisoquinolin-4-yl)methyl)quinolin-8-yl)oxy)ethanol dihydrochloride], the IC50 worked out at 42 nM. The IC50 values of the last two compounds are within 1.5-fold of each other.
`COc1cc2cnc(C)c(Cc3cnc4ccccc4c3)c2cc1OC` [Compound 43, 3-((6,7-dimethoxy-3-methylisoquinolin-4-yl)methyl)quinoline dihydrocloride]: half-maximal inhibition (IC50) required 39 nM.
Under `CCCc1ncc(Cc2cc3cc(OC)ccc3nc2O)c2cc(OC)c(OC)cc12` [Compound 49, 3-((6,7-dimethoxy-1-propylisoquinolin-4-yl)methyl)-6-methoxyquinolin-2-ol dihydrochloride] stands 63 nM; under `CCCc1ncc(Cc2cc3cc(C)ccc3nc2O)c2cc(OC)c(OC)cc12` [Compound 54, 3-((6,7-dimethoxy-1-propylisoquinolin-4-yl)methyl)-6-methylquinolin-2-ol dihydrochloride], 151 nM; under `CCCc1ncc(Cc2ccc3nc(C)ccc3c2)c2cc(OC)c(OC)cc12` [Compound 57, 6-((6,7-dimethoxy-1-propylisoquinolin-4-yl)methyl)-2-methylquinoline dihydrochloride], 20 nM.
On to `CCCc1ncc(Cc2cc3cc(OC)ccc3nc2NCCNC(C)=O)c2cc(OC)c(OC)cc12` [Compound 76, N-(2-((3-((6,7-dimethoxy-1-propylisoquinolin-4-yl)methyl)-6-methoxyquinolin-2-yl)amino)ethyl)acetamide dihydrochloride], for which the IC50 was 11 nM.
`CCc1ncc(Cc2ccc3cccc(O)c3n2)c2cc(OC)c(OC)cc12` [Compound 83, 2-((1-ethyl-6,7-dimethoxyisoquinolin-4-yl)methyl)quinolin-8-ol] had an IC50 of 11 nM. This lies in the double-digit nanomolar range.
To `CCOC(=O)C(=O)Nc1cccc2ccc(Cc3cnc(CC)c4cc(OC)c(OC)cc34)nc12` [Compound 92, ethyl 2-((2-((1-ethyl-6,7-dimethoxyisoquinolin-4-yl)methyl)quinolin-8-yl)amino)-2-oxoacetate] belongs 495 nM.
On to `CCc1ncc(Cc2ccc3cccc(CNS(N)(=O)=O)c3n2)c2cc(OC)c(OC)cc12` [Compound 94, N-((2-((1-ethyl-6,7-dimethoxyisoquinolin-4-yl)methyl)quinolin-8-yl)methyl)sulfamide], for which the IC50 was 13 nM.
Take `CCc1ncc(Cc2cnc3ccc(NC(=O)C(N)=O)cc3c2)c2cc(OC)c(OC)cc12` [Compound 98, N^1-(3-((1-ethyl-6,7-dimethoxyisoquinolin-4-yl)methyl)quinolin-6-yl)oxalamide]: inhibition was half-maximal at 3.5 nM (IC50).
Consider `CCc1ncc(Cc2cnc3ccc(N(C)S(C)(=O)=O)cc3c2)c2cc(OC)c(OC)cc12` [Compound 101, N-(3-((1-ethyl-6,7-dimethoxyisoquinolin-4-yl)methyl)quinolin-6-yl)-N-methylmethanesulfonamide], for which the IC50 is 43 nM. Against the preceding compound, the IC50 is about 12-fold higher.
`COc1cc2c(Cc3ccc4nc(C)ccc4c3)cnc(C)c2cc1OC` [Compound 105, 6-((6,7-dimethoxy-1-methylisoquinolin-4-yl)methyl)-2-methylquinoline dihydrochloride]: half-maximal inhibition (IC50) was put at 4.3 nM.
`CCNc1nc2ccc(OC)cc2cc1Cc1cncc2cc(OC)c(OC)cc12` [Compound 113, 3-((6,7-dimethoxyisoquinolin-4-yl)methyl)-N-ethyl-6-methoxyquinolin-2-amine dihydrochloride] displayed a 50% inhibitory concentration (IC50) of 32 nM.
In the case of `COC(=O)c1ccc(-c2nc3cc(Cc4cncc5cc(OC)c(OC)cc45)ccc3o2)cc1` [Compound 115, methyl 4-(5-((6,7-dimethoxyisoquinolin-4-yl)methyl)benzo[d]oxazol-2-yl)benzoate], the IC50 was found to be 61 nM.
In the case of `CCCc1ncc(Cc2ccc3cccc(OCC(=O)NC4CC4)c3n2)c2cc(OC)c(OC)cc12` [Compound 126, N-cyclopropyl-2-((2-((6,7-dimethoxy-1-propylisoquinolin-4-yl)methyl)quinolin-8-yl)oxy)acetamide], the IC50 came out at 71 nM.
To `CCOC(=O)COc1cccc2ccc(Cc3cnc(CC)c4cc(OC)c(OC)cc34)nc12` [Compound 128, ethyl 2-((2-((1-ethyl-6,7-dimethoxyisoquinolin-4-yl)methyl)quinolin-8-yl)oxy)acetate] belongs 59 nM; to `CCCc1ncc(Cc2cc3cc(OC)ccc3nc2NC)c2cc(OC)c(OC)cc12` [Compound 129, 3-((6,7-dimethoxy-1-propylisoquinolin-4-yl)methyl)-6-methoxy-N-methylquinolin-2-amine], 9.5 nM; to `CCCc1ncc(Cc2cnc3ccc(OCC(N)=O)cc3c2)c2cc(OC)c(OC)cc12` [Compound 144, 2-((3-((6,7-dimethoxy-1-propylisoquinolin-4-yl)methyl)quinolin-6-yl)oxy)acetamide], 6.5 nM.
Compound `CCCc1ncc(Cc2ccc3oc(=O)n(CC(N)=O)c3c2)c2cc(OC)c(OC)cc12` [Compound 148, 2-(5-((6,7-dimethoxy-1-propylisoquinolin-4-yl)methyl)-2-oxobenzo[d]oxazol-3(2H)-yl)acetamide] had a half-inhibitory concentration (IC50) of 87 nM.
`COc1cc2c(Cc3ccc4cccc(N)c4n3)cnc(C)c2cc1OC` [Compound 152, 2-((6,7-dimethoxy-1-methylisoquinolin-4-yl)methyl)quinolin-8-amine] yielded a 50% inhibitory concentration (IC50) of 13 nM. This IC50 is about 6.7-fold lower than that of the compound before.
To `COc1cc2cncc(Cc3cnc4ccc(O)c(C(F)(F)F)c4c3)c2cc1OC` [Compound 161, 3-((6,7-dimethoxyisoquinolin-4-yl)methyl)-5-(trifluoromethyl)quinolin-6-ol] belongs 6 nM.
To `CCCc1ncc(Cc2cnc3ccc(OP(=O)(O)O)cc3c2)c2cc(OC)c(OC)cc12` [Compound 171, sodium 3-((6,7-dimethoxy-1-propylisoquinolin-4-yl)methyl)quinolin-6-yl phosphate] belongs 62 nM.
